Test results reported in patent US11384055B2 (BIOMARIN PHARMACEUTICAL INC., priority 2017, dated 2022).
pIC50: −log10 of the molar value.

Each compound was assayed against T1, Human GO (Homo sapiens, UniProt Q9UJM8) (assay: GO enzymatic assay (coupled fluorescence/HRP assay, glycolate substrate)). Conditions: Table 2; read-out: Range (range of IC50 values calculated from the enzymatic assays).
T1 construct: purchased Novus Biologicals NBP1-72412
T1 sequence (Q9UJM8 1-370): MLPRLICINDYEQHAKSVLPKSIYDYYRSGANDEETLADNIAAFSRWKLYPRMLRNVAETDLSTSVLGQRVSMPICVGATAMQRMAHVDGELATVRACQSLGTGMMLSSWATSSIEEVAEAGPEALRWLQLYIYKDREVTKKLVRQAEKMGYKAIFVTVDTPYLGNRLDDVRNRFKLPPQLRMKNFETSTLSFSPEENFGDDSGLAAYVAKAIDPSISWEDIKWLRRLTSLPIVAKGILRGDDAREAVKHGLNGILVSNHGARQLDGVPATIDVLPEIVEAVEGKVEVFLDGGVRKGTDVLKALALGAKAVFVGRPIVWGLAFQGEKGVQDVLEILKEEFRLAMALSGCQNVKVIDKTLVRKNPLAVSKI
Assay type: biochemical
Outline: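 Coupled HRP/fluorescence read-out of glycolate oxidation by human GO in 50 mM potassium phosphate buffer (pH 7). Inhibitors added across a concentration range.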

SMILES | pIC50
O=C(O)c1[nH]nnc1Oc1ccc(-c2cccc(N3CCCCC3)c2)cc1 [Compound 220, 4-((3′-(piperidin-1-yl)-[1,1′-biphenyl]-4-yl)oxy)-1H-1,2,3-triazole-5-carboxylic acid 2,2,2-trifluoroacetate] | > 7.00
O=C(O)c1[nH]nnc1Oc1ccc(-c2ccc(N3CCCCC3)cc2)cc1 [Compound 221, 4-((4′-(piperidin-1-yl)-[1,1′-biphenyl]-4-yl)oxy)-1H-1,2,3-triazole-5-carboxylic acid 2,2,2-trifluoroacetate] | > 7.00
CN1CCCc2cc(-c3ccc(Oc4nn[nH]c4C(=O)O)cc3)ccc21 [Compound 222, 4-(4-(1-methyl-1,2,3,4-tetrahydroquinolin-6-yl)phenoxy)-1H-1,2,3-triazole-5-carboxylic acid] | > 7.00
O=C(O)c1[nH]nnc1Oc1ccc(-c2cccc3c2CCCC3)cc1 [Compound 223, 4-(4-(5,6,7,8-tetrahydronaphthalen-1-yl)phenoxy)-1H-1,2,3-triazole-5-carboxylic acid 2,2,2-trifluoroacetate] | > 7.00
O=C(O)c1[nH]nnc1Oc1ccc(-c2cccc(CN3CCCCC3=O)c2)cc1 [Compound 224, 4-((3′-((2-oxopiperidin-1-yl)methyl)-[1,1′-biphenyl]-4-yl)oxy)-1H-1,2,3-triazole-5-carboxylic acid] | > 7.00
N#Cc1ccc(-c2ccc(Oc3nn[nH]c3C(=O)O)cc2)cc1 [Compound 225, 4-((4′-cyano-[1,1′-biphenyl]-4-yl)oxy)-1H-1,2,3-triazole-5-carboxylic acid] | > 7.00
CC(C)N1CCc2ccc(Oc3nn[nH]c3C(=O)O)cc2C1 [Compound 226, 4-((2-isopropyl-1,2,3,4-tetrahydroisoquinolin-7-yl)oxy)-1H-1,2,3-triazole-5-carboxylic acid 2,2,2-trifluoroacetate] | 5.00 to 6.00
O=C(O)c1[nH]nnc1OCc1ccc2cc(Cl)ccc2c1 [Compound 227, 4-((6-chloronaphthalen-2-yl)methoxy)-1H-1,2,3-triazole-5-carboxylic acid 2,2,2-trifluoroacetate] | > 7.00
O=C(O)c1[nH]nnc1Oc1ccc(-c2cccc(C3CCCCC3)c2)cc1 [Compound 228, 4-((3′-cyclohexyl-[1,1′-biphenyl]-4-yl)oxy)-1H-1,2,3-triazole-5-carboxylic acid] | > 7.00
O=C(O)c1c(Oc2ccc(Cl)c(Cl)c2)nnn1COC(=O)C1CCCCC1 [Compound 229, 1-(((cyclohexanecarbonyl)oxy)methyl)-4-(3,4-dichlorophenoxy)1H-1,2,3-triazole-5-carboxylic acid] | 6.00 to 7.00
COCCOc1cccc(-c2ccc(Oc3nn[nH]c3C(=O)O)cc2)c1 [Compound 230, 4-((3′-(2-methoxyethoxy)-[1,1′-biphenyl]-4-yl)oxy)-1H-1,2,3-triazole-5-carboxylic acid] | > 7.00
O=C(O)c1[nH]nnc1Oc1ccc2c(c1)OCCO2 [Compound 231, 4-((2,3-dihydrobenzo[b][1,4]dioxin-6-yl)oxy)-1H-1,2,3-triazole-5-carboxylic acid 2,2,2-trifluoroacetate] | > 7.00
O=C(O)c1[nH]nnc1Oc1ccc(-c2cccc(OCC3CC3)c2)cc1 [Compound 232, 4-((3′-(cyclopropylmethoxy)-[1,1′-biphenyl]-4-yl)oxy)-1H-1,2,3-triazole-5-carboxylic acid] | > 7.00
CC(=O)N1CCN(c2cccc(-c3ccc(Oc4nn[nH]c4C(=O)O)cc3)c2)CC1 [Compound 233, 4-((3′-(4-acetylpiperazin-1-yl)-[1,1′-biphenyl]-4-yl)oxy)-1H-1,2,3-triazole-5-carboxylic acid 2,2,2-trifluoroacetate] | > 7.00
COCCOc1ccc(-c2ccc(Oc3nn[nH]c3C(=O)O)cc2)cc1 [Compound 234, 4-((4′-(2-methoxyethoxy)-[1,1′-biphenyl]-4-yl)oxy)-1H-1,2,3-triazole-5-carboxylic acid] | > 7.00
CC(=O)OCOC(=O)c1[nH]nnc1Oc1ccc2cc(Cl)ccc2c1 [Compound 235, acetoxymethyl 4-((6-chloronaphthalen-2-yl)oxy)-1H-1,2,3-triazole-5-carboxylate] | > 7.00
O=C(O)c1[nH]nnc1Oc1ccc2cc(OC(F)F)ccc2c1 [Compound 236, 4-((6-(difluoromethoxy)naphthalen-2-yl)oxy)-1H-1,2,3-triazole-5-carboxylic acid] | > 7.00
O=C(O)c1[nH]nnc1OC1CCc2cc(F)c(F)cc2C1 (stereo not drawn) [Compound 237, 4-((6,7-difluoro-1,2,3,4-tetrahydronaphthalen-2-yl)oxy)-1H-1,2,3-triazole-5-carboxylic acid] | > 7.00

SMILES | pIC50
O=C(O)c1[nH]nnc1Oc1ccc(-c2cccc(C3CCOCC3)c2)cc1 [Compound 238, 4-((3′-(tetrahydro-2H-pyran-4-yl)-[1,1′-biphenyl]-4-yl)oxy)-1H-1,2,3-triazole-5-carboxylic acid 2,2,2-trifluoroacetate] | > 7.00
CC(C)C(=O)OCOC(=O)c1[nH]nnc1Oc1ccc2cc(Cl)ccc2c1 [Compound 239, (isobutyryloxy)methyl 4-((6-chloronaphthalen-2-yl)oxy)-1H-1,2,3-triazole-5-carboxylate] | 6.00 to 7.00
CC(C)(C)OC(=O)N1CCCCC1C(=O)OCn1nnc(Oc2ccc(Cl)c(Cl)c2)c1C(=O)O (stereo not drawn) [Compound 240, 1-(((1-(tert-butoxycarbonyl)piperidine-2-carbonyl)oxy)methyl)-4-(3,4-dichlorophenoxy)-1H-1,2,3-triazole-5-carboxylic acid] | 5.00 to 6.00
O=C(O)c1[nH]nnc1OC1Cc2cc(Cl)c(Cl)cc2C1 [Compound 241, 4-((5,6-dichloro-2,3-dihydro-1H-inden-2-yl)oxy)-1H-1,2,3-triazole-5-carboxylic acid 2,2,2-trifluoroacetate] | > 7.00
O=C(O)c1[nH]nnc1Oc1ccc(-c2ccc(C3CCOCC3)cc2)cc1 [Compound 242, 4-((4′-(tetrahydro-2H-pyran-4-yl)-[1,1′-biphenyl]-4-yl)oxy)-1H-1,2,3-triazole-5-carboxylic acid] | > 7.00
O=C(O)c1[nH]nnc1CSc1ccc(Cl)c(Cl)c1 [Compound 243, 4-(((3,4-dichlorophenyl)thio)methyl)-1H-1,2,3-triazole-5-carboxylic acid] | > 7.00
CC(C)C(=O)OCOC(=O)c1[nH]nnc1Sc1ccc(-c2ccc(N3CCCCC3)cc2)cc1 [Compound 244, (isobutyryloxy)methyl 4-((4′-(piperidin-1-yl)-[1,1′-biphenyl]-4-yl)thio)-1H-1,2,3-triazole-5-carboxylate] | 5.00 to 6.00
CC(C)N1CCCc2ccc(Oc3nn[nH]c3C(=O)O)cc21 [Compound 245, 4-((1-isopropyl-1,2,3,4-tetrahydroquinolin-7-yl)oxy)-1H-1,2,3-triazole-5-carboxylic acid 2,2,2-trifluoroacetate] | 5.00 to 6.00
CN1CCN(c2cccc(-c3ccc(Oc4nn[nH]c4C(=O)O)cc3)c2)CC1 [Compound 246, 4-((3′-(4-methylpiperazin-1-yl)-[1,1′-biphenyl]-4-yl)oxy)-1H-1,2,3-triazole-5-carboxylic acid 2,2,2-trifluoroacetate] | 6.00 to 7.00
O=C(O)c1[nH]nnc1Sc1ccc(-c2cccc(C3CCCCC3)c2)cc1 [Compound 247, 4-((3′-cyclohexyl-[1,1′-biphenyl]-4-yl)thio)-1H-1,2,3-triazole-5-carboxylic acid] | > 7.00
O=C(OCOC(=O)c1[nH]nnc1Oc1ccc2cc(Cl)ccc2c1)c1ccccc1 [Compound 249, (benzoyloxy)methyl 4-((6-chloronaphthalen-2-yl)oxy)-1H-1,2,3-triazole-5-carboxylate] | 5.00 to 6.00
O=C(O)c1[nH]nnc1Oc1ccc(-c2ccc3cccnc3c2)cc1 [Compound 250, 4-(4-(quinolin-7-yl)phenoxy)-1H-1,2,3-triazole-5-carboxylic acid 2,2,2-trifluoroacetate] | > 7.00
CC(C)(C)C(=O)OCOC(=O)c1[nH]nnc1Oc1ccc2cc(Cl)ccc2c1 [Compound 251, (pivaloyloxy)methyl 4-((6-chloronaphthalen-2-yl)oxy)-1H-1,2,3-triazole-5-carboxylate] | 5.00 to 6.00
CC(C)C(=O)OCOC(=O)c1[nH]nnc1Oc1ccc2c(c1)CCCC2 [Compound 252, (isobutyryloxy)methyl 4-((5,6,7,8-tetrahydronaphthalen-2-yl)oxy)-1H-1,2,3-triazole-5-carboxylate] | 6.00 to 7.00
O=C(O)c1[nH]nnc1Oc1cccc(OC2CC2)c1 [Compound 253, 4-(3-cyclopropoxyphenoxy)-1H-1,2,3-triazole-5-carboxylic acid 2,2,2-trifluoroacetate] | > 7.00
O=C(O)c1[nH]nnc1Oc1ccc(Cl)c(OC(F)(F)F)c1 [Compound 254, 4-(4-chloro-3-(trifluoromethoxy)phenoxy)-1H-1,2,3-triazole-5-carboxylic acid] | > 7.00
CC(=O)NCCOc1ccc(-c2ccc(Oc3nn[nH]c3C(=O)O)cc2)cc1 [Compound 255, 4-((4′-(2-acetamidoethoxy)-[1,1′-biphenyl]-4-yl)oxy)-1H-1,2,3-triazole-5-carboxylic acid] | > 7.00
CC(C)C(=O)OCOC(=O)c1[nH]nnc1OC1CCc2cc(Cl)c(Cl)cc2C1 (stereo not drawn) [Compound 256, (isobutyryloxy)methyl 4-((6,7-dichloro-1,2,3,4-tetrahydronaphthalen-2-yl)oxy)-1H-1,2,3-triazole-5-carboxylate] | 6.00 to 7.00
